Measurements as given in patent publication US8449898B2 (priority 2007, dated 2013).

**Q.** For Cc1cc(C(F)(F)F)nn1CC(=O)N1CCC(c2nc(C3=NOC(C)(c4ccccc4)C3)cs2)CC1 (stereo not shown), which melting point is on record?
**A.** 97 to 100 °C
